# Article PMC12775819, “Optimizing PSMA-617-based inhibitors through charged linker modifications: Insights into structure-activity relationships” (Theranostics, 2026)
# Non-standard residues stand in square brackets, D forms with d. Residues, ends and D or L forms follow the SMILES beside them. *: point of attachment. DOTA = O=C(O)CN1CCN(CC(=O)O)CCN(CC(=O)*)CCN(CC(=O)O)CC1; EuK = O=C(O)CC[C@H](NC(=O)N[C@@H](CCCCN*)C(=O)O)C(=O)O; 2Nal = N[C@@H](Cc1ccc2ccccc2c1)C(=O)O; Trx = NC[C@H]1CC[C@H](C(=O)O)CC1
# Legend:
# [1] = tested on: PSMA-positive LNCaP cells; experiment: Surface binding and internalization of 68Ga-labeled compounds; assay type: cell-based, human; conditions: for Internalization Block / Surface Binding Block / Internalization / Surface Binding: 30 nM, 45 min, 37 °C; for Internalization Block / Surface Binding Block: blocked with 2-PMPA 500 µM; for Internalization / Surface Binding: unblocked; for Specific Internalization / Specific Surface Binding: difference of unblocked and blocked values
# Experimental: The PSMA-positive human cell line LNCaP (human lymph node carcinoma of the prostate; ATCC CRL-1740) was cultivated adherently at 37 °C and humidified 5% CO2 with RPMI-1640 (Thermo Fisher Scientific, Germany) supplemented with 10% fetal bovine serum (Sigma-Aldrich, Germany), 1% sodium pyruvate (Life Technologies, Germany) and 1% penicillin/[…] (Thermo Fisher Scientific, Germany). A mixture of trypsin/ethylenediaminetetraacetic acid (0.05% / 0.02%; Thermo Fisher Scientific, Germany) was used for cell harvesting (last authentication: April 2024).
# Internalization assays were performed on poly-L-lysine coated 24-well cell culture plates. The day before the experiment, LNCaP cells (10^5 cells/well) were harvested and seeded to the wells. The cells were incubated with the ^68Ga-labeled compounds (250 µl, 30 nM, diluted in RPMI medium) for 45 min at 37 °C. […] The medium was then removed and the cells washed with ice-cold PBS buffer (3 × 1 ml). To remove surface bound compounds, ice-cold glycine buffer (2 × 0.5 ml, 50 mM, pH 2.8) was added to the wells and collected after 5 min in a combined fraction. After washing once with PBS (1 ml), NaOH (0.5 ml, 0.3 M) was added to the cells for lysation. Collected surface-bound, internalized fractions and standards from the stock solutions (25 µl) were measured in a γ-counter. Data was normalized and presented as percentage of the initially added radioactivity bound to 10^5 cells [%IA/10^5 cells].
# [2] = Partition coefficient (logD), n-octanol/PBS pH 7.4; assay type: physicochemical; conditions: 68Ga-labeled compounds, mean ± SD, read-out: Partition Coefficient [logDoctanol/PBS]
# Experimental: To determine the lipophilicity expressed as distribution coefficient (logD), a two-phase system of n-octanol (500 µl) and phosphate buffered saline (PBS) (490 µl) at pH 7.4 was used (n = 4). Compounds were radiolabeled with [^68Ga]Ga^3+ and the mixture diluted to a concentration of 0.25 µM in PBS. 10 µl of the 0.25 µM dilution were added to the n-octanol / PBS mixture. After extensive mixing, the 2-phase system was centrifuged for 10 min at 14,000 rpm and 4 °C. Two samples from each phase (100 µl) were taken and measured in a γ-gamma counter (PerkinElmer, Waltham, USA). […] The data is presented as the mean value with the standard deviation (SD).
# in vivo = conditions: male, BALB/c nu/nu, mouse, iv, 500 pmol, total radioactivity
# [3] = Static small-animal PET imaging 1 h and 2 h p.i.; conditions: male, BALB/c nu/nu, mouse, tumor (LNCaP xenograft), iv, 500 pmol, total radioactivity, SUV tumor, 68Ga-labeled, 0.5 nmol i.v., n = 1, SD from VOIs
Compound,Internalization Block [1],Surface Binding Block [1],Internalization [1],Surface Binding [1],Specific Internalization [1],Specific Surface Binding [1],logD [2],SUV at 1 h (in vivo; SUV kidneys),SUV at 2 h (in vivo; SUV kidneys),SUV at 1 h (in vivo; SUV muscle),SUV at 2 h (in vivo; SUV muscle),SUV at 1 h (in vivo; SUV tumor),SUV at 2 h (in vivo; SUV tumor),SUV at 1 h ([3]; static PET 1 h p.i.),SUV at 2 h ([3]; static PET 2 h p.i.),tissue to tissue ratio at 1 h (in vivo),tissue to tissue ratio at 2 h (in vivo)
"O=C(O)CC[C@H](NC(=O)N[C@@H](CCCCNC(=O)[C@H](Cc1c[nH]cn1)NC(=O)[C@H](CCC(=O)O)NC(=O)[C@H](Cc1c[nH]cn1)NC(=O)[C@H](CCC(=O)O)NC(=O)[C@H](Cc1c[nH]cn1)NC(=O)[C@H](CCC(=O)O)NC(=O)[C@H](Cc1ccc2ccccc2c1)NC(=O)[C@H]1CC[C@H](CNC(=O)CN2CCN(CC(=O)O)CCN(CC(=O)O)CCN(CC(=O)O)CC2)CC1)C(=O)O)C(=O)O [PS1, EuK-(HE)3-NaI-ChX-DOTA] ({DOTA-Trx}-[2Nal]EHEHEH-EuK)",0.314 ± 0.024 %Binding / %Internalization,0.069 ± 0.012 %Binding / %Internalization,0.66 ± 0.14 %Binding / %Internalization,1.15 ± 0.17 %Binding / %Internalization,0.35 ± 0.3 %Binding / %Internalization,1.09 ± 0.34 %Binding / %Internalization,-3.5 ± 0.2,1.71 ± 0.2 SUV,1.32 ± 0.15 SUV,0.09 ± 0.01 SUV,0.08 ± 0.02 SUV,0.43 ± 0.06 SUV,0.3 ± 0.11 SUV,,,,
"O=C(O)CC[C@H](NC(=O)N[C@@H](CCCCNC(=O)[C@H](Cc1ccc2ccccc2c1)NC(=O)[C@H](Cc1c[nH]cn1)NC(=O)[C@H](CCC(=O)O)NC(=O)[C@H](Cc1c[nH]cn1)NC(=O)[C@H](CCC(=O)O)NC(=O)[C@H](Cc1c[nH]cn1)NC(=O)[C@H](CCC(=O)O)NC(=O)[C@H]1CC[C@H](CNC(=O)CN2CCN(CC(=O)O)CCN(CC(=O)O)CCN(CC(=O)O)CC2)CC1)C(=O)O)C(=O)O [PS2, EuK-NaI-(HE)3-ChX-DOTA] ({DOTA-Trx}-EHEHEH[2Nal]-EuK)",0.21 ± 0.036 %Binding / %Internalization,0.183 ± 0.024 %Binding / %Internalization,0.55 ± 0.04 %Binding / %Internalization,1.01 ± 0.14 %Binding / %Internalization,0.34 ± 0.24 %Binding / %Internalization,0.83 ± 0.27 %Binding / %Internalization,-3.4 ± 0.3,1.64 ± 0.1 SUV,1.01 ± 0.09 SUV,0.11 ± 0.02 SUV,0.11 ± 0.01 SUV,0.78 ± 0.05 SUV,0.74 ± 0.06 SUV,,,,
"O=C(O)CC[C@H](NC(=O)N[C@@H](CCCCNC(=O)[C@H](Cc1ccc2ccccc2c1)NC(=O)[C@H]1CC[C@H](CNC(=O)[C@H](CCC(=O)O)NC(=O)[C@H](Cc2c[nH]cn2)NC(=O)[C@H](CCC(=O)O)NC(=O)[C@H](Cc2c[nH]cn2)NC(=O)[C@H](CCC(=O)O)NC(=O)[C@H](Cc2c[nH]cn2)NC(=O)CN2CCN(CC(=O)O)CCN(CC(=O)O)CCN(CC(=O)O)CC2)CC1)C(=O)O)C(=O)O [PS4, EuK-NaI-ChX-(EH)3-DOTA] ({DOTA}-HEHEHE[Trx][2Nal]-EuK)",0.149 ± 0.047 %Binding / %Internalization,0.080 ± 0.009 %Binding / %Internalization,0.81 ± 0.29 %Binding / %Internalization,1.43 ± 0.12 %Binding / %Internalization,0.66 ± 0.68 %Binding / %Internalization,1.35 ± 0.21 %Binding / %Internalization,-3.9 ± 0.3,3.81 ± 0.15 SUV,2.77 ± 0.2 SUV,0.11 ± 0.02 SUV,0.1 ± 0.03 SUV,1.15 ± 0.04 SUV,1.07 ± 0.09 SUV,,,,
"O=C(O)CC[C@H](NC(=O)N[C@@H](CCCCNC(=O)[C@H](CCC(=O)O)NC(=O)[C@H](CCC(=O)O)NC(=O)[C@H](CCC(=O)O)NC(=O)[C@H](Cc1ccc2ccccc2c1)NC(=O)[C@H]1CC[C@H](CNC(=O)CN2CCN(CC(=O)O)CCN(CC(=O)O)CCN(CC(=O)O)CC2)CC1)C(=O)O)C(=O)O [PS6, EuK-E3-NaI-ChX-DOTA] ({DOTA-Trx}-[2Nal]EEE-EuK)",,,,,,,-3.1 ± 0.3,1.53 ± 0.08 SUV,0.4 ± 0.05 SUV,0.11 ± 0.02 SUV,0.11 ± 0.02 SUV,0.69 ± 0.07 SUV,0.85 ± 0.08 SUV,,,,
"O=C(O)CC[C@H](NC(=O)N[C@@H](CCCCNC(=O)[C@H](Cc1ccc2ccccc2c1)NC(=O)[C@H](CCC(=O)O)NC(=O)[C@H](CCC(=O)O)NC(=O)[C@H](CCC(=O)O)NC(=O)[C@H]1CC[C@H](CNC(=O)CN2CCN(CC(=O)O)CCN(CC(=O)O)CCN(CC(=O)O)CC2)CC1)C(=O)O)C(=O)O [PS7, EuK-NaI-E3-ChX-DOTA] ({DOTA-Trx}-EEE[2Nal]-EuK)",,,,,,,-3.3 ± 0.1,1.6 ± 0.12 SUV,0.59 ± 0.06 SUV,0.09 ± 0.01 SUV,0.12 ± 0.02 SUV,0.71 ± 0.05 SUV,0.56 ± 0.08 SUV,,,,
"O=C(O)CC[C@H](NC(=O)N[C@@H](CCCCNC(=O)[C@H](Cc1ccc2ccccc2c1)NC(=O)[C@H]1CC[C@H](CNC(=O)[C@H](CCC(=O)O)NC(=O)[C@H](CCC(=O)O)NC(=O)[C@H](CCC(=O)O)NC(=O)CN2CCN(CC(=O)O)CCN(CC(=O)O)CCN(CC(=O)O)CC2)CC1)C(=O)O)C(=O)O [PS8, EuK-NaI-ChX-E3-DOTA] ({DOTA}-EEE[Trx][2Nal]-EuK)",,,,,,,-3 ± 0.1,3.89 ± 0.65 SUV,2.7 ± 0.89 SUV,0.08 ± 0.02 SUV,0.11 ± 0.02 SUV,1.32 ± 0.08 SUV,0.86 ± 0.39 SUV,,,,
"O=C(O)CC[C@H](NC(=O)N[C@@H](CCCCNC(=O)[C@H](Cc1c[nH]cn1)NC(=O)[C@H](Cc1c[nH]cn1)NC(=O)[C@H](Cc1c[nH]cn1)NC(=O)[C@H](Cc1ccc2ccccc2c1)NC(=O)[C@H]1CC[C@H](CNC(=O)CN2CCN(CC(=O)O)CCN(CC(=O)O)CCN(CC(=O)O)CC2)CC1)C(=O)O)C(=O)O [PS9, EuK-H3-NaI-ChX-DOTA] ({DOTA-Trx}-[2Nal]HHH-EuK)",,,,,,,-3.2 ± 0.1,0.98 ± 0.09 SUV,0.74 ± 0.09 SUV,0.082 ± 0.002 SUV,0.07 ± 0.03 SUV,0.21 ± 0.05 SUV,0.12 ± 0.03 SUV,,,,
"O=C(O)CC[C@H](NC(=O)N[C@@H](CCCCNC(=O)[C@H](Cc1ccc2ccccc2c1)NC(=O)[C@H](Cc1c[nH]cn1)NC(=O)[C@H](Cc1c[nH]cn1)NC(=O)[C@H](Cc1c[nH]cn1)NC(=O)[C@H]1CC[C@H](CNC(=O)CN2CCN(CC(=O)O)CCN(CC(=O)O)CCN(CC(=O)O)CC2)CC1)C(=O)O)C(=O)O [PS10, EuK-NaI-H3-ChX-DOTA] ({DOTA-Trx}-HHH[2Nal]-EuK)",,,,,,,-3.7 ± 0.6,8.13 ± 1.31 SUV,1.09 ± 0.06 SUV,0.21 ± 0.03 SUV,0.06 ± 0.02 SUV,0.65 ± 0.04 SUV,0.37 ± 0.05 SUV,,,,
"O=C(O)CC[C@H](NC(=O)N[C@@H](CCCCNC(=O)[C@H](Cc1ccc2ccccc2c1)NC(=O)[C@H]1CC[C@H](CNC(=O)[C@H](Cc2c[nH]cn2)NC(=O)[C@H](Cc2c[nH]cn2)NC(=O)[C@H](Cc2c[nH]cn2)NC(=O)CN2CCN(CC(=O)O)CCN(CC(=O)O)CCN(CC(=O)O)CC2)CC1)C(=O)O)C(=O)O [PS11, EuK-NaI-ChX-H3-DOTA] ({DOTA}-HHH[Trx][2Nal]-EuK)",,,,,,,-3.6 ± 0.1,1.24 ± 0.08 SUV,0.77 ± 0.13 SUV,0.11 ± 0.02 SUV,0.1 ± 0.03 SUV,0.82 ± 0.07 SUV,0.88 ± 0.09 SUV,,,,
"O=C(O)CC[C@H](NC(=O)N[C@@H](CCCCNC(=O)[C@H](Cc1c[nH]cn1)NC(=O)[C@H](CCC(=O)O)NC(=O)[C@H](Cc1c[nH]cn1)NC(=O)[C@H](CCC(=O)O)NC(=O)[C@H](Cc1c[nH]cn1)NC(=O)[C@H](CCC(=O)O)NC(=O)[C@H](Cc1ccc2ccccc2c1)NC(=O)[C@H]1CC[C@H](CNC(=O)CN2CCN(CC(=O)O)CCN(CC(=O)O)CCN(CC(=O)O)CC2)CC1)C(=O)O)C(=O)O [[^68Ga]Ga-PS1, metal not drawn] ({DOTA-Trx}-[2Nal]EHEHEH-EuK)",,,,,,,,,,,,,,0.43 ± 0.06 SUV,0.3 ± 0.11 SUV,,
"O=C(O)CC[C@H](NC(=O)N[C@@H](CCCCNC(=O)[C@H](CCC(=O)O)NC(=O)[C@H](CCC(=O)O)NC(=O)[C@H](CCC(=O)O)NC(=O)[C@H](Cc1ccc2ccccc2c1)NC(=O)[C@H]1CC[C@H](CNC(=O)CN2CCN(CC(=O)O)CCN(CC(=O)O)CCN(CC(=O)O)CC2)CC1)C(=O)O)C(=O)O [[^68Ga]Ga-PS6, metal not drawn] ({DOTA-Trx}-[2Nal]EEE-EuK)",,,,,,,,,,,,,,,,0.44 ± 0.15,2.15 ± 0.22
